Patent US8937053B2, “Process for the preparation of prasugrel and several novel crystalline forms of prasugrel hydrochloride” (Sunshine Lake Pharma Co., Ltd., priority 2011, dated 2015)

Experiment: Solubility test (Chinese Pharmacopoeia 2010)
Format: physicochemical
Conditions: 0.1M HCl, 25±2° C., 300 mg ground powder sample, shaken 30 seconds at 5 minute intervals, 30 minutes total, dissolution judged by eye; for Solubility: hydrochloride
Procedure: According to the solubility test described in “Chinese Pharmacopoeia 2010”, Topic and Requirement 15, the grinded sample in powder form was added to a certain amount of solvent at 25±2° C. […] The solid was deemed as dissolved when no solid was detected in the mixture by human eyes.

| SMILES | solubility at 30 min (25 °C, simulated gastric fluid, thermodynamic from solid) [mg/mL] | Solubility [mg/mL] |
| --- | --- | --- |
| CC(=O)Oc1cc2c(s1)CCN(C(C(=O)C1CC1)c1ccccc1F)C2.Cl (stereo not shown) [Form B2, prasugrel hydrochloride] | 40 | – |
| CC(=O)Oc1cc2c(s1)CCN(C(C(=O)C1CC1)c1ccccc1F)C2.Cl (stereo not shown) [Form H1, prasugrel hydrochloride] | – | 50 |
| CC(=O)Oc1cc2c(s1)CCN(C(C(=O)C1CC1)c1ccccc1F)C2.Cl (stereo not shown) [Form H2, prasugrel hydrochloride] | – | 50 |
| CC(=O)Oc1cc2c(s1)CCN(C(C(=O)C1CC1)c1ccccc1F)C2.Cl (stereo not shown) [Form H3, prasugrel hydrochloride] | – | 50 |
